Where “and” joins values, the source holds several entries; their conditions need not be identical. Identical values can stand only once. Like-named read-outs stand apart in the source and are kept apart here.
Columns and labels:
[1] = test system: neonatal rat ventricular cardiomyocytes (NVCM); assay: Protection against DAU-induced cytotoxicity (LDH release) in NVCM; assay type: cell-based; settings: for LDH release: independent replicates
Summary of the method: (§1)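 Primary neonatal Wistar rat cardiomyocytes in serum- and pyruvate-free DMEM/F12 were pretreated with compound 3 h, then co-incubated 3 h with DAU (1.2 µM), or without DAU for inherent toxicity, then given a 48 h drug-free follow-up. Medium LDH activity (NAD+ reduction at 340 nm) expressed as % of total LDH.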

[2] = test system: neonatal rat ventricular cardiomyocytes (NVCM); assay: Inherent toxicity (LDH release) in NVCM; assay type: cell-based; set-up: key to LDH release (inherent toxicity), mean of independent replicates: % of total LDH activity; settings: for LDH release (inherent toxicity), mean of independent replicates: Suppl.Fig.6c
Summary of the method: as §1

recombinant human TOP2A = target: T1, recombinant human TOP2A (Homo sapiens, UniProt P11388); assay: In vitro ATPase activity of TOP2A (coupled assay); assay type: biochemical
T1 construct: Using recombinant full-length human TOP2A and TOP2B enzymes; YFP (N, cleaved yes); made in house; host or cells: HEK293F
Summary of the method: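 Recombinant human TOP2A or TOP2B, prediluted to 500 nM in HEPES pH 7.5/500 mM NaCl storage buffer, in an NADH-coupled ATP hydrolysis assay, ATP-initiated at 30 °C. NADH fluorescence decay (ex 340, em 480) read every 30 s for 120 cycles. Slopes background-corrected, normalized to untreated controls, and fitted for IC50.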

[3] = independent replicates, normalized to 0 drug, read-out: Normalized % TOP2A activity
[4] = independent replicates, read-out: Normalized % TOP2A activity, ATPase

T1 sequence (P11388 whole entry): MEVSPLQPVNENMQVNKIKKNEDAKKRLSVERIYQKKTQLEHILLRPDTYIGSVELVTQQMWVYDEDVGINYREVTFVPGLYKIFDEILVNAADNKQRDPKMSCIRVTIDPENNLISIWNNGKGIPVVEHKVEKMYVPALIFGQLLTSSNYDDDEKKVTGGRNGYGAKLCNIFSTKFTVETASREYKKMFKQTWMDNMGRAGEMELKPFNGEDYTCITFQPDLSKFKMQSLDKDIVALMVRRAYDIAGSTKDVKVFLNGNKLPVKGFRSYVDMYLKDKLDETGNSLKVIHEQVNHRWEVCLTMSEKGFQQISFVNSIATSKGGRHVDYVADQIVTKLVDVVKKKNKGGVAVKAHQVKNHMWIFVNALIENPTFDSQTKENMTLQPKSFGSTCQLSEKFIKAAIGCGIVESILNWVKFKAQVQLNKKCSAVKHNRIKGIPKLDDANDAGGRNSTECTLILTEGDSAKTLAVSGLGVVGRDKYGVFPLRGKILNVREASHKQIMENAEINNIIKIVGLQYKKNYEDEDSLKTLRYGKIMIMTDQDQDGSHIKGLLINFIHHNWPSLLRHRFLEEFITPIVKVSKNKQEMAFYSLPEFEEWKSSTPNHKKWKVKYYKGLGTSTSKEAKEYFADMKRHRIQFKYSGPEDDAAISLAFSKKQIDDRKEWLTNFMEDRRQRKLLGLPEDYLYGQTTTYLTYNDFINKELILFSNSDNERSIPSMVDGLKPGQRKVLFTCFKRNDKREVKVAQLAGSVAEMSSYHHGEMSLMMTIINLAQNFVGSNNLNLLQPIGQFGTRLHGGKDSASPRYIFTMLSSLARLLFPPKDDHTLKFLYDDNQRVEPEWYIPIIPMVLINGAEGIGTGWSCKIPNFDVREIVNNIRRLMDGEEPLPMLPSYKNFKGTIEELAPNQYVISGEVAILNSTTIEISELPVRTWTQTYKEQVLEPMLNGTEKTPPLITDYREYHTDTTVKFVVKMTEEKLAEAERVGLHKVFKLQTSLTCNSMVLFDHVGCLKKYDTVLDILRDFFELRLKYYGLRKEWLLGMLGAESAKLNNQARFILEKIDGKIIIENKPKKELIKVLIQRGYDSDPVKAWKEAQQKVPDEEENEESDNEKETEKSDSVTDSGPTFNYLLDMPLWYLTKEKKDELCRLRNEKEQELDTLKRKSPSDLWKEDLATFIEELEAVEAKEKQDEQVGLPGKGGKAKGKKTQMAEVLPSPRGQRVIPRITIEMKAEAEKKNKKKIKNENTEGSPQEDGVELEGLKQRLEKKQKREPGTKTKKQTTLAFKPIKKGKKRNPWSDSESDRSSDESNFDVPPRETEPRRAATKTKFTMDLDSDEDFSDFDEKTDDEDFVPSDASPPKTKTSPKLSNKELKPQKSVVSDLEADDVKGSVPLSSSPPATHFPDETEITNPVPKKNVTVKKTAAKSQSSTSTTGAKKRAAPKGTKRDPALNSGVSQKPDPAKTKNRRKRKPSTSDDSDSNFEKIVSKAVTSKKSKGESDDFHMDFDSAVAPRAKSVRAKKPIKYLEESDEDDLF

With `CCCc1cc(=O)oc2c(C(=O)N3CCCc4ccccc43)c(OCCN3CCN(C)CC3)ccc12` [topobexin (9)] the “concentration providing significant cardioprotection” value ([1]; NVCM, DAU 1.2 µM) was ≥ 1 µM, the minimal effective concentration ([1]; Rattus norvegicus, Cardiomyocyte, NVCM, protection against DAU 1.2 µM, n=4, read-out: LEC = lowest effective concentration) was 1 µM and the “LDH release, mean” value ([1]; compound 0.01 µM + DAU 1.2 µM) was 39.6717 % of total LDH. For the same compound, the “LDH release (protection against DAU), mean of independent replicates” value (“LDH release (protection against DAU)” below) ([1]; compound 0.01 µM + DAU 1.2 µM, NVCM, Suppl.Fig.6b) was 39.6717, the LDH release ([1]; compound 0.01 µM + DAU 1.2 µM) was 48.3922 % of total LDH and 39.9759 % of total LDH and 35.5793 % of total LDH and 34.7393 % of total LDH and the “LDH release, mean” value ([1]; compound 0.1 µM + DAU 1.2 µM) was 37.5382 % of total LDH. The “LDH release (protection against DAU)” value ([1]; compound 0.1 µM + DAU 1.2 µM, NVCM, Suppl.Fig.6b) was 37.5382, the “LDH release (protection against DAU)” value ([1]; compound 0.1 µM + DAU 1.2 µM, NVCM, Suppl.Fig.8a) was 42.825 and the LDH release ([1]; compound 0.1 µM + DAU 1.2 µM) was 40.1489 % of total LDH and 41.381 % of total LDH and 32.4516 % of total LDH and 36.1711 % of total LDH. For the same compound, the “LDH release, mean” value ([1]; compound 1 µM + DAU 1.2 µM) was 29.7613 % of total LDH, the “LDH release (protection against DAU)” value ([1]; compound 1 µM + DAU 1.2 µM, NVCM, Suppl.Fig.6b) was 29.7613 and the “LDH release (protection against DAU)” value ([1]; compound 1 µM + DAU 1.2 µM, NVCM, Suppl.Fig.8a) was 37.7816. The LDH release ([1]; compound 1 µM + DAU 1.2 µM) was 32.8929 % of total LDH and 30.456 % of total LDH and 27.486 % of total LDH and 28.2102 % of total LDH, the “LDH release, mean” value ([1]; compound 10 µM + DAU 1.2 µM) was 24.2662 % of total LDH and the “LDH release (protection against DAU)” value ([1]; compound 10 µM + DAU 1.2 µM, NVCM, Suppl.Fig.6b) was 24.2662. For the same compound, the “LDH release (protection against DAU)” value ([1]; compound 10 µM + DAU 1.2 µM, NVCM, Suppl.Fig.8a) was 30.0056, the LDH release ([1]; compound 10 µM + DAU 1.2 µM) was 28.5774 % of total LDH and 24.8184 % of total LDH and 21.0698 % of total LDH and 22.5992 % of total LDH and the “LDH release, mean” value ([1]; compound 30 µM + DAU 1.2 µM) was 25.2224 % of total LDH. For the same compound, the “LDH release (protection against DAU)” value ([1]; compound 30 µM + DAU 1.2 µM, NVCM, Suppl.Fig.6b) was 25.2224, the LDH release ([1]; compound 30 µM + DAU 1.2 µM) was 28.8537 % of total LDH and 23.9613 % of total LDH and 20.3957 % of total LDH and 27.679 % of total LDH and the “LDH release, mean” value ([1]; compound 100 µM + DAU 1.2 µM) was 26.7487 % of total LDH. The “LDH release (protection against DAU)” value ([1]; compound 100 µM + DAU 1.2 µM, NVCM, Suppl.Fig.6b) was 26.7487, the “LDH release (protection against DAU)” value ([1]; compound 100 µM + DAU 1.2 µM, NVCM, Suppl.Fig.8a) was 32.5863 and the LDH release ([1]; compound 100 µM + DAU 1.2 µM) was 31.0584 % of total LDH and 27.7033 % of total LDH and 21.5053 % of total LDH and 26.728 % of total LDH. For the same compound, the “lowest concentration with statistically significant cytoprotective effects” value ([1]; side-by-side comparison with dexrazoxane (Supp Fig 8a)) was 0.1 µM, the “LTC = lowest toxic concentration” value ([2]; NVCM, compound alone, n=4) was > 100 µM and the “LDH release, mean” value ([2]; compound 100 µM alone) was 16.49 % of total LDH. The LDH release ([2]; compound 100 µM alone, independent replicates) was 16.0714 % of total LDH and 14.563 % of total LDH and 13.722 % of total LDH and 21.6038 % of total LDH, the “LDH release (inherent toxicity), mean of independent replicates” value (“LDH release (inherent toxicity), mean” for short) ([2]; compound alone 0.01 µM, NVCM) was 15.0001 and the “LDH release (inherent toxicity), mean” value ([2]; compound alone 0.1 µM, NVCM) was 13.7512. The “LDH release (inherent toxicity), mean” value ([2]; compound alone 1 µM, NVCM) was 12.2924, the “LDH release (inherent toxicity), mean” value ([2]; compound alone 10 µM, NVCM) was 14.4604 and the “LDH release (inherent toxicity), mean” value ([2]; compound alone 30 µM, NVCM) was 15.0547. For the same compound, the “LDH release (inherent toxicity), mean” value ([2]; compound alone 100 µM, NVCM) was 16.49, the remaining activity at 0.03125 µM (recombinant human TOP2A; 0.03125 μM, independent replicates, read-out: Normalized % TOP2A activity, ATPase) was 89.4% and the remaining activity at 0.0625 µM (recombinant human TOP2A; [3]) was 89.1%. It also gave a remaining activity at 0.0625 µM (recombinant human TOP2A; [4]) of 92.8%, a remaining activity at 0.125 µM (recombinant human TOP2A; 0.125 μM, independent replicates, normalized to 0 drug, read-out: Normalized % TOP2A activity) of 88.8% and a remaining activity at 0.25 µM (recombinant human TOP2A; [3]) of 87.4%. For the same compound, the remaining activity at 0.25 µM (recombinant human TOP2A; [4]) was 79.6%, the remaining activity at 0.5 µM (recombinant human TOP2A; 0.5 μM, independent replicates, normalized to 0 drug, read-out: Normalized % TOP2A activity) was 81.9% and the remaining activity at 1 µM (recombinant human TOP2A; 1 μM, independent replicates, normalized to 0 drug, read-out: Normalized % TOP2A activity) was 73.3%. It also gave a remaining activity at 2 µM (recombinant human TOP2A; 2 μM, independent replicates, normalized to 0 drug, read-out: Normalized % TOP2A activity) of 53.8%, a remaining activity at 4 µM (recombinant human TOP2A; 4 μM, independent replicates, normalized to 0 drug, read-out: Normalized % TOP2A activity) of 26.2% and a remaining activity at 8 µM (recombinant human TOP2A; [3]) of 5.71%. The remaining activity at 8 µM (recombinant human TOP2A; [4]) was 28.6%, the remaining activity at 16 µM (recombinant human TOP2A; 16 μM, independent replicates, read-out: Normalized % TOP2A activity, ATPase) was 14.4% and the IC50 (recombinant human TOP2A; n=3) was 4.09 µM.

From article PMC12116762, “Topobexin targets the Topoisomerase II ATPase domain for beta isoform-selective inhibition and anthracycline cardioprotection” (Nature Communications, 2025)
